Data taken from patent publication US20130165368A1, “ANTIMICROBIAL COMPOUNDS” (priority 2010, published 2013).
Converted amounts (≈) assume the structure as drawn. Where two headings read alike, the source gives them in different places.

How the values were obtained:
Type in all cases: cell-based
[1] = test system: Enterococcus casseliflavus (VRE) Clin waste; assay: MIC agar dilution, VRE strain 23
Protocol: (§1) Molar equivalent concentrations were used to allow comparison between compounds of differing molecular mass. Due to weighing difficulties, any compound in solid form was melted in a water bath prior to dilution. To make ten-times strength concentrations, which takes into account agar dilution, 0.0352 mmol of each compound was weighed into plastic universal bottles and 4 mL of sterile distilled water (SDW) was added. To produce a homogenous emulsion the universals were vortexed; once achieved the emulsions were serial diluted by adding 2 mL to 2 mL of SDW.
(§2) For every 100 mL of Isosensitest agar (IST) (CM0471; Oxoid, Basingstoke, England), 3.1 g of the IST powder was added to 100 mL SDW (as per manufacturer's instructions) and sterilised for 15 minutes at 121° C. Once sterilised, the molten agar was cooled to 50° C. in a water-bath. Subsequently 4.8 g of CCEY powder (BC2160; Bioconnections, Wetherby, England), also known as Brazier's medium, was added to 100 mL SDW for every 100 mL of agar needed. This was then sterilised for 15 minutes at 121° C. Once sterilised the molten agar was cooled to 50° C. in a water-bath and 4 mL of egg-yolk emulsion (S2073; TCS Biosciences Ltd, Buckingham, United Kingdom) and 1 mL of lysed defibrinated horse blood (HB035; TCS Biosciences Ltd, Buckingham, United Kingdom) were also added for every 100 mL needed. Horse blood lysis is achieved by dilution to half concentration with SDW; when fully lysed the mixture will turn dark red in colour.
(§3) 18 mL agar was added to each universal and then poured into sterile Petri dishes. This step creates a 1/10 dilution resulting in agar plates of the required strength. Control plates for each set of strains were created by adding 18 mL of agar to 2 mL of SDW.
(§4) Suspensions of each bacterial species were prepared with a density equal to that of a 0.5 McFarland standard using a densitometer. All suspensions were made using sterile distilled water and fresh 18-20 hour cultures. As a 0.5 McFarland standard contains 1.5×10^8 CFU/mL and the multipoint inoculators applies 1 μL spots of liquid, each bacterial suspension was diluted 1/15 (20 μL suspension to 280 μL sterile distilled water).
(§5) Bacterial suspensions were prepared from fresh 18-24 hour cultures as previously described. 1 μL of each strain was inoculated onto all 100 agar plates containing a different chemical concentration and the 2 control plates. This was done using a multipoint inoculator which inoculates 20 strains per plate. All plates were incubated for 22 hours at 37° C. in aerobic conditions.
(§6) Each plate was examined for bacterial growth after 22 and 48 hours, with each being incubated in between examinations. A positive result was recorded as growth of ≧10 colonies. A negative result was recorded as growth of <10 colonies as this is equivalent to 99.9% inhibition. The lowest concentration of chemical that inhibited growth was recorded as the MIC. The results are recorded in Table IV below, where the numbers are quoted in mmol/L.
(§7) Given the positive performance of the ethoxylates of lauryl alcohol in reducing the MIC for a number of the micro-organisms tested, further MIC testing of Laureth-1 [C12E1] through to Laureth-8 [C12E8] was conducted on each of the following: • 10 strains of vancomycin-resistant enterococci (VRE)—listed in Table V below; and • 20 strains of methicillin-resistant Staphylococcus aureus (MRSA)—listed in Table VI.
(§8) The alkanol, alkanol derivatives, agar plates, and inocula were all prepared in the same way as described above.
(§9) The plates were examined in the same manner as described above and the results are recorded in Table VII below, where the numbers are quoted in mmol/L.

Steptococcus pyogenes = assay: MIC agar dilution, micro-organism 11 (8306); settings: Steptococcus pyogenes 8306, read-out: MIC
Outline: (§10)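 Twofold dilutions of compound emulsions in water were set in Isosensitest agar with Brazier's CCEY medium, egg yolk and lysed horse blood. Spots of 1 µL from 0.5 McFarland suspensions diluted 1/15 were incubated aerobically at 37 °C and read at 22 and 48 h. MIC (mmol/L) was the lowest concentration giving <10 colonies.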

MRSA BEL 97598 = assay: MIC agar dilution, MRSA strain 34; settings: Staphylococcus aureus
Protocol: as §1, §2, §3, §4, §5, §6, §7, §8, §9

MRSA FRA 95035 = assay: MIC agar dilution, MRSA strain 37; settings: Staphylococcus aureus
Protocol: as §1, §2, §3, §4, §5, §6, §7, §8, §9

[2] = test system: MRSA GER 1966/97 (Hanover IIIc); assay: MIC agar dilution, MRSA strain 36; settings: Staphylococcus aureus
Protocol: as §1, §2, §3, §4, §5, §6, §7, §8, §9

MRSA FRA 920 = assay: MIC agar dilution, MRSA strain 38; settings: Staphylococcus aureus
Protocol: as §1, §2, §3, §4, §5, §6, §7, §8, §9

MRSA BEL 97597 = assay: MIC agar dilution, MRSA strain 33; settings: Staphylococcus aureus
Protocol: as §1, §2, §3, §4, §5, §6, §7, §8, §9

Providencia rettgeri = assay: MIC agar dilution, micro-organism 3 (7475); settings: Providencia rettgeri 7475, read-out: MIC
Outline: as §10

Escherichia coli = assay: MIC agar dilution, micro-organism 1 (10418); settings: Escherichia coli 10418, read-out: MIC
Outline: as §10

[3] = test system: Enterococcus faecium (VRE) NCTC 12952; assay: MIC agar dilution, VRE strain 30
Protocol: as §1, §2, §3, §4, §5, §6, §7, §8, §9

[4] = test system: Enterococcus faecalis (VRE) PHLS URINE 2000; assay: MIC agar dilution, VRE strain 21
Protocol: as §1, §2, §3, §4, §5, §6, §7, §8, §9

[5] = test system: Staphylococcus epidermidis; assay: MIC agar dilution, micro-organism 14 (11047); settings: Staphylococcus epidermidis 11047, read-out: MIC
Outline: as §10

Enterococcus faecium = assay: MIC agar dilution, micro-organism 16 (7171); settings: Enterococcus faecium 7171, read-out: MIC
Outline: as §10

- MIC ([1]; 22 hrs): 440 µM (≈ 237 µg/mL)
- MIC ([1]; 48 hrs): 440 µM (≈ 237 µg/mL)
- MIC (Steptococcus pyogenes; 22 h, 22 hrs): ≤ 50 µM
- MIC (Steptococcus pyogenes; 48 h, 48 hrs): ≤ 50 µM
- MIC (MRSA BEL 97598; 22 hrs): > 440 µM
- MIC (MRSA BEL 97598; 48 hrs): > 440 µM
- MIC (MRSA FRA 95035; 22 hrs): > 440 µM
- MIC (MRSA FRA 95035; 48 hrs): > 440 µM
- MIC ([2]; 22 hrs): 110 µM (≈ 59.3 µg/mL)
- MIC ([2]; 48 hrs): 110 µM (≈ 59.3 µg/mL)
- MIC (MRSA FRA 920; 22 hrs): > 440 µM
- MIC (MRSA FRA 920; 48 hrs): > 440 µM
- MIC (MRSA BEL 97597; 22 hrs): 220 µM (≈ 119 µg/mL)
- MIC (MRSA BEL 97597; 48 hrs): > 440 µM
- MIC (Providencia rettgeri; 22 hrs): > 880 µM
- MIC (Providencia rettgeri; 48 hrs): > 880 µM
- MIC (Escherichia coli; 22 hrs): > 880 µM
- MIC (Escherichia coli; 48 hrs): > 880 µM
- MIC ([3]; 22 hrs): > 880 µM
- MIC ([3]; 48 hrs): > 880 µM
- MIC ([4]; 22 hrs): 220 µM (≈ 119 µg/mL)
- MIC ([4]; 48 hrs): 220 µM (≈ 119 µg/mL)
- MIC ([5]; 22 hrs): 110 µM (≈ 59.3 µg/mL)
- MIC ([5]; 48 hrs): 110 µM (≈ 59.3 µg/mL)
- MIC (Enterococcus faecium; 22 hrs): > 880 µM
- MIC (Enterococcus faecium; 48 hrs): > 880 µM
Structure (SMILES): CCCCCCCCCCCCOCCOCCOCCOCCOCCOCCOCCOCCO [L8, Octaethylene Glycol Monododecyl Ether]
